Data published in US6444616B1, “Substituted p-trifluoromethylphenyluracils” (Bayer Aktiengesellschaft, priority 1999, dated 2002).

How the values were obtained:
[1] = test system: Cyperus; assay: Pre-emergence test; type: in vivo; conditions: rated after 3 weeks, application rate not stated, 0%=no effect, 100%=total destruction
Procedure: (§1) Solvent: 5 parts by weight of acetone
(§2) Emulsifier: 1 part by weight of alkylaryl polyglycol ether
(§3) To produce a suitable preparation of active compound, 1 part by weight of active compound is mixed with the stated amount of solvent, the stated amount of emulsifier is added and the concentrate is diluted with water to the desired concentration.
(§4) Seeds of the test plants are sown in normal soil. After about 24 hours, the soil is sprayed with the preparation of active compound in such a way as to apply the particular amounts of active compound desired per unit area. The concentration of the spray liquor is chosen so that the particular amounts of active compound desired are applied in 1000 l of water/ha.
(§5) After 3 weeks, the degree of damage to plants is rated in % damage in comparison to the development of the untreated control.
(§6) 0%=no effect (like untreated control)

[2] = test system: Sinapis; assay: Pre-emergence test; type: in vivo; conditions: rated after 3 weeks, application rate not stated
Procedure: as §1, §2, §3, §4, §5, §6

[3] = test system: Abutilon; assay: Postemergence test; type: in vivo; conditions: plants 5-15 cm sprayed, rated after 3 weeks, application rate not stated
Procedure: as §1, §2
(§7) To produce an effective preparation of active compound, 1 part by weight of active compound is mixed with the stated amount of solvent, the stated amount of emulsifier is added and the concentrate is diluted with water to the desired concentration.
as §4, with “Test plants which have a height” for “Seeds”, “5-15 cm” for “the test plants”, “are” for “are sown in normal soil. After about 24 hours, the soil is”
(§8) After 3 weeks, the degree of damage to the plants is rated in % damage in comparison to the development of the untreated control.
as §6

[4] = test system: Ipomoea; assay: Postemergence test; type: in vivo; conditions: plants 5-15 cm sprayed, rated after 3 weeks, application rate not stated
Procedure: as §1, §2, §7
as §4, with “Test plants which have a height” for “Seeds”, “5-15 cm” for “the test plants”, “are” for “are sown in normal soil. After about 24 hours, the soil is”
as §8, §6

[5] = test system: Matricaria; assay: Postemergence test; type: in vivo; conditions: plants 5-15 cm sprayed, rated after 3 weeks, application rate not stated
Procedure: as §1, §2, §7
as §4, with “Test plants which have a height” for “Seeds”, “5-15 cm” for “the test plants”, “are” for “are sown in normal soil. After about 24 hours, the soil is”
as §8, §6

[6] = test system: Sinapis; assay: Postemergence test; type: in vivo; conditions: plants 5-15 cm sprayed, rated after 3 weeks, application rate not stated
Procedure: as §1, §2, §7
as §4, with “Test plants which have a height” for “Seeds”, “5-15 cm” for “the test plants”, “are” for “are sown in normal soil. After about 24 hours, the soil is”
as §8, §6

[7] = test system: Solanum; assay: Postemergence test; type: in vivo; conditions: plants 5-15 cm sprayed, rated after 3 weeks, application rate not stated
Procedure: as §1, §2, §7
as §4, with “Test plants which have a height” for “Seeds”, “5-15 cm” for “the test plants”, “are” for “are sown in normal soil. After about 24 hours, the soil is”
as §8, §6

[8] = test system: datura; assay: Postemergence test; type: in vivo; conditions: plants 5-15 cm sprayed, rated after 3 weeks, application rate not stated
Procedure: as §1, §2, §7
as §4, with “Test plants which have a height” for “Seeds”, “5-15 cm” for “the test plants”, “are” for “are sown in normal soil. After about 24 hours, the soil is”
as §8, §6

[9] = test system: polygonum; assay: Postemergence test; type: in vivo; conditions: plants 5-15 cm sprayed, rated after 3 weeks, application rate not stated
Procedure: as §1, §2, §7
as §4, with “Test plants which have a height” for “Seeds”, “5-15 cm” for “the test plants”, “are” for “are sown in normal soil. After about 24 hours, the soil is”
as §8, §6

SMILES | degree of damage to plants, % damage vs untreated control [1] [%] | degree of damage to plants, % damage vs untreated control [2] [%] | degree of damage to the plants, % damage vs untreated control [3] [%] | degree of damage to the plants, % damage vs untreated control [4] [%] | degree of damage to the plants, % damage vs untreated control [5] [%] | degree of damage to the plants, % damage vs untreated control [6] [%] | degree of damage to the plants, % damage vs untreated control [7] [%] | degree of damage to the plants, % damage vs untreated control [8] [%] | degree of damage to the plants, % damage vs untreated control [9] [%] | melting point [°C]
Cn1c(C(F)(F)F)cc(=O)n(-c2cc(F)c(C(F)(F)F)cc2F)c1=O [Example 2, 1-(2,5-difluoro-4-trifluoromethyl-phenyl)-3,6-dihydro-2,6-dioxo-3-methyl-4-trifluoromethyl-1 (2H)-pyrimidine] | 80 | 100 | 100 | 100 | 100 | 100 | 100 | 100 | 95 | 110
Cn1c(C(F)(F)F)cc(=O)n(-c2cc(NS(C)(=O)=O)c(C(F)(F)F)cc2F)c1=O [Example 5] | 80 | 100 | 100 | 100 | 100 | 100 | 100 | 100 | 95 | 163
CS(=O)(=O)Nc1cc(-n2c(=O)cc(C(F)(F)F)[nH]c2=O)c(F)cc1C(F)(F)F [Example 4] | 80 | 100 | 100 | 100 | 100 | 100 | 100 | 100 | 95 | 227
O=c1cc(C(F)(F)F)[nH]c(=O)n1-c1cc(F)c(C(F)(F)F)cc1F [Example 1, 1-(2,5-difluoro4-trifluoromethyl-phenyl)-3,6-dihydro-2,6-dioxo-4-trifluoromethyl-1(2H)-pyrimidine] |  |  |  |  |  |  |  |  |  | 217
Nn1c(C(F)(F)F)cc(=O)n(-c2cc(F)c(C(F)(F)F)cc2F)c1=O [Example 3, 3-amino-1-(2,5-difluoro-4-trifluoromethyl-phenyl)-3,6-dihydro-2,6-dioxo-4-trifluoromethyl-1 (2H)-pyrimidine] |  |  |  |  |  |  |  |  |  | 157
